The values below come from patent US10208074B2, “Pyrazole compounds and method for making and using the compounds” (Rigel Pharmaceuticals, Inc., priority 2015, dated 2019).

One may read the EC50 as the midpoint of the concentration-response curve.

One test deals with IL-23 (p19/p40). The experiment in a line: IL23-p19 ELISA, Dendritic, LPS (compound screening using DC cells). The class given is cell-based, Human. The method in brief: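 IL-23 in supernatants quantified by sandwich ELISA (anti-p19 capture, biotinylated anti-p40 detection, chemiluminescent readout) after 18 h LPS (1 μg/ml) stimulation. Cells were monocyte-derived DCs (GM-CSF/IL-4, 7 d), IFNγ-primed 24 h and given compound 1 h before LPS; viability by CellTiter Glo.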
(ELISA stands for enzyme-linked immunosorbent assay.)

A further test has as its system IL-23p19. Briefly: LPS induced IL23p19 in THP-1 cells (with IFNγ primed) assay. In kind it is cell-based, Human. The method in brief:
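Readout is secreted IL-23p19, quantified by chemiluminescent sandwich ELISA after 18 h LPS (1 ug/mL) stimulation of THP-1 cells that had been IFNγ-primed (50 ng/mL, ~18 h) and given compound 1 h beforehand at 37 °C. EC50 derived by curve fit; cytotoxicity tracked with Cell Titer Glo.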

Where [1] appears, read: Homo sapiens, 18 h, PBMC-derived DC cells, IFNγ primed, LPS 1 μg/ml, 18 hours, 10 pt, read-out: IL23-p19 ELISA, Dendritic, LPS, 10 pt, EC50.
The mark [2] stands for this setting: Homo sapiens, THP-1, 18 h, THP-1 cells, IFNγ primed, LPS 1 ug/mL, 18 hours, 10 pt, read-out: IL23-p19 ELISA, THP1-IFNy, LPS, 10 pt EC50.
Setting [3] is: PBMC-derived DC cells, IFNγ primed, LPS 1 μg/ml, 18 hours, 10 pt, read-out: IL23-p19 ELISA, Dendritic, LPS, 10 pt, EC50.
The mark [4] stands for this setting: THP-1 cells, IFNγ primed, LPS 1 ug/mL, 18 hours, 10 pt, read-out: IL23-p19 ELISA, THP1-IFNy, LPS, 10 pt EC50.

Where a name gives a salt, the structure may show the parent alone. Read-outs that look alike come from different tables or passages of the source.

Regarding `CCO[C@H]1C[C@@H](n2cc(NC(=O)c3csc(-c4cnn(COP(=O)(O)O)c4)n3)c(-c3ccccn3)n2)C1` [II-77, (4-(4-((1-((1,3-cis)-3-ethoxycyclobutyl)-3-(pyridin-2-yl)-1H-pyrazol-4-yl)carbamoyl)thiazol-2-yl)-1H-pyrazol-1-yl)methyl phosphate bis-potassium salt], the EC50 with IL-23 (p19/p40) (PBMC-derived DC cells, IFNγ primed, LPS 1 μg/ml, 18 hours, 10 pt, phosphate bis-potassium salt, read-out: IL23-p19 ELISA, Dendritic, LPS, 10 pt, EC50) is 0.146 µM; in the test on IL-23p19 (THP-1 cells, IFNγ primed, LPS 1 ug/mL, 18 hours, 10 pt, phosphate bis-potassium salt, read-out: IL23-p19 ELISA, THP1-IFNy, LPS, 10 pt EC50), 0.147 µM.

With `CCO[C@H]1C[C@@H](n2cc(NC(=O)c3csc(-c4cnn(COP(=O)(O)O)c4)n3)c(-c3ccccn3)n2)C1` [II-78, (4-(4-((1-((1,3-cis)-3-ethoxycyclobutyl)-3-(pyridin-2-yl)-1H-pyrazol-4-yl)carbamoyl)thiazol-2-yl)-1H-pyrazol-1-yl)methyl phosphate calcium salt], the EC50 with IL-23 (p19/p40) (PBMC-derived DC cells, IFNγ primed, LPS 1 μg/ml, 18 hours, 10 pt, phosphate calcium salt, read-out: IL23-p19 ELISA, Dendritic, LPS, 10 pt, EC50) was 0.0799 µM; in the test on IL-23p19 (THP-1 cells, IFNγ primed, LPS 1 ug/mL, 18 hours, 10 pt, phosphate calcium salt, read-out: IL23-p19 ELISA, THP1-IFNy, LPS, 10 pt EC50) it was 0.165 µM.

`C[C@]1(O)C[C@H](n2cc(NC(=O)c3csc(-c4cn[nH]c4)n3)c(-c3ccccn3)n2)C1` [II-79, N-(1-((1r,3r)-3-hydroxy-3-methylcyclobutyl)-3-(pyridin-2-yl)-1H-pyrazol-4-yl)-2-(1H-pyrazol-4-yl)thiazole-4-carboxamide]: the EC50 with IL-23 (p19/p40) (setting [1]) stood at 0.0152 µM; in the test on IL-23p19 (setting [2]), 0.0758 µM.

Turning to `CCO[C@H]1C[C@@H](n2cc(NC(=O)c3csc(-c4cnn(COP(=O)(O)O)c4)n3)c(-c3ccccn3)n2)C1` [II-80, (4-(4-((1-((1,3-cis)-3-ethoxycyclobutyl)-3-(pyridin-2-yl)-1H-pyrazol-4-yl)carbamoyl)thiazol-2-yl)-1H-pyrazol-1-yl)methyl phosphate bis-ammonium salt], the EC50 was 0.247 µM in the test on IL-23 (p19/p40) (PBMC-derived DC cells, IFNγ primed, LPS 1 μg/ml, 18 hours, 10 pt, phosphate bis-ammonium salt, read-out: IL23-p19 ELISA, Dendritic, LPS, 10 pt, EC50) and 0.0495 µM in the test with IL-23p19 (THP-1 cells, IFNγ primed, LPS 1 ug/mL, 18 hours, 10 pt, phosphate bis-ammonium salt, read-out: IL23-p19 ELISA, THP1-IFNy, LPS, 10 pt EC50).

`CCO[C@H]1C[C@@H](n2cc(NC(=O)c3csc(-c4cnn(COP(=O)(O)O)c4)n3)c(-c3ccccn3)n2)C1` [II-81, (4-(4-((1-((1,3-cis)-3-ethoxycyclobutyl)-3-(pyridin-2-yl)-1H-pyrazol-4-yl)carbamoyl)thiazol-2-yl)-1H-pyrazol-1-yl)methyl phosphate bis-lysine salt]: the EC50 was 0.171 µM in the test on IL-23 (p19/p40) (setting [3]) and 0.019 µM in the test on IL-23p19 (setting [4]).

Turning to `CCO[C@H]1C[C@@H](n2cc(NC(=O)c3csc(-c4cnn(COP(=O)(O)O)c4)n3)c(-c3ccccn3)n2)C1` [II-82, (4-(4-((1-((1,3-cis)-3-ethoxycyclobutyl)-3-(pyridin-2-yl)-1H-pyrazol-4-yl)carbamoyl)thiazol-2-yl)-1H-pyrazol-1-yl)methyl phosphate bis-arginine salt], the EC50 in the test with IL-23 (p19/p40) (Homo sapiens, 18 h, read-out: IL23-p19 ELISA, Dendritic, LPS, 10 pt, EC50 (μM)) stood at 0.176 µM; in the test with IL-23p19 (Homo sapiens, THP-1, 18 h, read-out: IL23-p19 ELISA, THP1-IFNy, LPS, 10 pt EC50 (μM)), 0.0387 µM.

`CCO[C@H]1C[C@@H](n2cc(NC(=O)c3csc(-c4cnn(COP(=O)(O)O)c4)n3)c(-c3ccccn3)n2)C1` [II-83, (4-(4-((1-((1,3-cis)-3-ethoxycyclobutyl)-3-(pyridin-2-yl)-1H-pyrazol-4-yl)carbamoyl)thiazol-2-yl)-1H-pyrazol-1-yl)methyl dihydrogen phosphate]: the EC50 in the test on IL-23 (p19/p40) (setting [3]) turned out to be 0.241 µM; in the test on IL-23p19 (setting [4]) it was 0.0863 µM.

Take `CCO[C@H]1C[C@@H](n2cc(NC(=O)c3csc(-c4cnn(COP(=O)(O)O)c4)n3)c(-c3ccccn3)n2)C1` [II-84, (4-(4-((1-((1,3-cis)-3-ethoxycyclobutyl)-3-(pyridin-2-yl)-1H-pyrazol-4-yl)carbamoyl)thiazol-2-yl)-1H-pyrazol-1-yl)methyl phosphate Tris salt]: the 50% effective concentration (EC50) with IL-23 (p19/p40) (setting [3]) is 0.304 µM; in the test with IL-23p19 (setting [4]), 0.085 µM.

On to `CCO[C@H]1C[C@@H](n2cc(NC(=O)c3csc(-c4cnn(COP(=O)(O)O)c4)n3)c(-c3ccccn3)n2)C1` [II-85, (4-(4-((1-((1,3-cis)-3-ethoxycyclobutyl)-3-(pyridin-2-yl)-1H-pyrazol-4-yl)carbamoyl)thiazol-2-yl)-1H-pyrazol-1-yl)methyl phosphate triethylamine salt], for which the EC50 with IL-23 (p19/p40) (setting [3]) was determined as 0.287 µM; in the test on IL-23p19 (setting [4]) it was 0.0499 µM.

In the case of `CCO[C@H]1C[C@@H](n2cc(NC(=O)c3csc(-c4cn[nH]c4)n3)c(-c3ccc(C(F)(F)F)cn3)n2)C1` [II-86, N-(1-((1,3-cis)-3-ethoxycyclobutyl)-3-(5-(trifluoromethyl)pyridin-2-yl)-1H-pyrazol-4-yl)-2-(1H-pyrazol-4-yl)thiazole-4-carboxamide], the EC50 with IL-23 (p19/p40) (setting [1]) amounted to 5.78 µM; in the test with IL-23p19 (setting [2]) it was 0.137 µM.

Turning to `O=C(Nc1cn(C(F)F)nc1-c1ccccn1)c1csc(-c2cn[nH]c2)n1` [II-88, N-(1-(difluoromethyl)-3-(pyridin-2-yl)-1H-pyrazol-4-yl)-2-(1H-pyrazol-4-yl)thiazole-4-carboxamide], the EC50 in the test with IL-23 (p19/p40) (setting [1]) was determined as 0.39 µM; with IL-23p19 (setting [2]), 0.0965 µM.

As for `CCO[C@H]1C[C@@H](n2cc(NC(=O)c3csc(-c4cn[nH]c4)n3)c(-c3ncccc3C(F)(F)F)n2)C1` [II-89, N-(1-((1,3-cis)-3-ethoxycyclobutyl)-3-(3-(trifluoromethyl)pyridin-2-yl)-1H-pyrazol-4-yl)-2-(1H-pyrazol-4-yl)thiazole-4-carboxamide], the EC50 was determined as 1.13 µM with IL-23 (p19/p40) (setting [1]) and 0.589 µM in the test with IL-23p19 (setting [2]).

Regarding `CCO[C@H]1C[C@@H](n2cc(NC(=O)c3csc(-c4cn[nH]c4)n3)c(-c3cccc(C(F)(F)F)n3)n2)C1` [II-90, N-(1-((1,3-cis)-3-ethoxycyclobutyl)-3-(6-(trifluoromethyl)pyridin-2-yl)-1H-pyrazol-4-yl)-2-(1H-pyrazol-4-yl)thiazole-4-carboxamide], the EC50 in the test with IL-23 (p19/p40) (setting [1]) amounted to 0.218 µM; with IL-23p19 (setting [2]), 0.176 µM.

With `O=C(Nc1cn(CC(F)(F)F)nc1-c1ccccn1)c1csc(-c2cn[nH]c2)n1` [II-94, 2-(1H-pyrazol-4-yl)-N-(3-(pyridin-2-yl)-1-(2,2,2-trifluoroethyl)-1H-pyrazol-4-yl)thiazole-4-carboxamide], the EC50 stood at 0.0333 µM in the test on IL-23 (p19/p40) (setting [1]) and 0.311 µM in the test on IL-23p19 (setting [2]).

Take `O=C(Nc1cn(C(F)F)nc1-c1ccccn1)c1csc(-c2c[nH]nc2C(F)(F)F)n1` [II-95, N-(1-(difluoromethyl)-3-(pyridin-2-yl)-1H-pyrazol-4-yl)-2-(3-(trifluoromethyl)-1H-pyrazol-4-yl)thiazole-4-carboxamide]: the values for the EC50 in the test on IL-23 (p19/p40) (setting [1]) and with IL-23p19 (setting [2]) were 6.23 µM and 2.25 µM, respectively.

Take `Cc1n[nH]cc1-c1nc(C(=O)Nc2cn(C(F)F)nc2-c2ccccn2)cs1` [II-96, N-(1-(difluoromethyl)-3-(pyridin-2-yl)-1H-pyrazol-4-yl)-2-(3-methyl-1H-pyrazol-4-yl)thiazole-4-carboxamide]: the 50% effective concentration (EC50) in the test on IL-23 (p19/p40) (setting [1]) was 0.457 µM; in the test with IL-23p19 (setting [2]), 0.0837 µM.

For the molecule `CCO[C@H]1C[C@@H](n2cc(NC(=O)c3csc(-c4c[nH]nc4C)n3)c(-c3cccc(C(F)(F)F)n3)n2)C1` [II-99, N-(1-((1,3-cis)-3-ethoxycyclobutyl)-3-(6-(trifluoromethyl)pyridin-2-yl)-1H-pyrazol-4-yl)-2-(3-methyl-1H-pyrazol-4-yl)thiazole-4-carboxamide], the figures for the EC50 in the test with IL-23 (p19/p40) (setting [1]) and with IL-23p19 (setting [2]) were 0.989 µM and 0.42 µM, respectively.

As for `Cc1n[nH]cc1-c1nc(C(=O)Nc2cn(CC(F)(F)F)nc2-c2ccccn2)cs1` [II-100, 2-(3-methyl-1H-pyrazol-4-yl)-N-(3-(pyridin-2-yl)-1-(2,2,2-trifluoroethyl)-1H-pyrazol-4-yl)thiazole-4-carboxamide], the concentration giving a half-maximal response (EC50) in the test with IL-23 (p19/p40) (setting [1]) came to 0.226 µM; in the test with IL-23p19 (setting [2]), 0.0561 µM.

In the case of `O=C(Nc1cn([C@H]2C[C@@H](O)C2)nc1-c1cnccn1)c1csc(-c2cn[nH]c2)n1` [II-101, N-(1-((1,3-cis)-3-hydroxycyclobutyl)-3-(pyrazin-2-yl)-1H-pyrazol-4-yl)-2-(1H-pyrazol-4-yl)thiazole-4-carboxamide], the figures for the EC50 in the test on IL-23 (p19/p40) (setting [1]) and in the test with IL-23p19 (setting [2]) were 0.0355 µM and 0.023 µM, respectively.

`CCO[C@H]1C[C@@H](n2cc(NC(=O)c3csc(-c4cn[nH]c4)n3)c(-c3ncccn3)n2)C1` [II-102, N-(1-((1,3-cis)-3-ethoxycyclobutyl)-3-(pyrimidin-2-yl)-1H-pyrazol-4-yl)-2-(1H-pyrazol-4-yl)thiazole-4-carboxamide]: the EC50 is 0.0554 µM in the test with IL-23 (p19/p40) (setting [1]) and 0.0619 µM with IL-23p19 (setting [2]).
